Among the data in PubChem BioAssay (NCI) are GI50 and TGI values, retold here.

Test systems include 786-0 renal; CCRF-CEM leukemia; HCT-116 colon; HT29 colon; LOX IMVI melanoma; MALME-3M melanoma; NCI-H460 lung; RPMI-8226 leukemia; SF-268 CNS; SK-MEL-2 melanoma.
Holding throughout (test): NCI tumour cell line growth inhibition, 48 h

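In this assay, cells in 96-well plates receive the compound at five concentrations for 48 hours. Endpoints are linearly interpolated between the surrounding concentrations. Here, GI50 denotes the concentration required for 50% inhibition of growth. TGI: total growth inhibition.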

As for `C=C(F)C(=O)N1CCN(c2nc(OC[C@@H]3CCCN3C)nc3c2CCN(c2cccc4cccc(Cl)c24)C3)C[C@@H]1CC#N`, the GI50 with 786-0 renal was 0.769 µM; in the assay with CCRF-CEM leukemia, 1.05 µM; in the assay with HCT-116 colon, 0.562 µM; with HT29 colon it was 0.699 µM; with LOX IMVI melanoma, 1.13 µM; with MALME-3M melanoma it was 1.47 µM. In addition, the GI50 with NCI-H460 lung was 1.05 µM; in the assay with RPMI-8226 leukemia it was 1.24 µM; in the assay on SF-268 CNS it was 1.37 µM; in the assay on SK-MEL-2 melanoma it was 1.4 µM. Moreover, the TGI in the assay on 786-0 renal was 2.09 µM; in the assay with CCRF-CEM leukemia it was 4.32 µM; in the assay on HCT-116 colon, 1.88 µM; with HT29 colon it was 2.42 µM; with LOX IMVI melanoma, 2.47 µM; with MALME-3M melanoma it was 2.98 µM. Further, the TGI is 2.38 µM with NCI-H460 lung, 3.45 µM with RPMI-8226 leukemia, 3.37 µM in the assay with SF-268 CNS and 2.8 µM with SK-MEL-2 melanoma.
For `Cc1ccc(Cl)cc1Nc1nc(C(F)(F)F)ccc1C(=O)N1CCN(c2ccc(F)cc2)CC1`, the GI50 in the assay with 786-0 renal is 14.7 µM; in the assay with CCRF-CEM leukemia it was 15.1 µM; with HCT-116 colon, 11.9 µM; in the assay with HT29 colon, 10.7 µM; with LOX IMVI melanoma, 11.9 µM; with MALME-3M melanoma it was 11.1 µM. The GI50 with NCI-H460 lung was 16 µM; in the assay on RPMI-8226 leukemia, 15.5 µM; in the assay with SF-268 CNS, 15.8 µM; in the assay on SK-MEL-2 melanoma, 16.1 µM. Further, the TGI in the assay with 786-0 renal amounted to 29.4 µM; in the assay with CCRF-CEM leukemia, 53.5 µM; with HCT-116 colon, 26.3 µM; in the assay with HT29 colon, 23.9 µM; with LOX IMVI melanoma, 24.6 µM; with MALME-3M melanoma, 23.4 µM. The TGI came to 36.9 µM in the assay on NCI-H460 lung, 52.6 µM in the assay with RPMI-8226 leukemia, 36.5 µM in the assay with SF-268 CNS and 37.1 µM in the assay with SK-MEL-2 melanoma.
`CCCCc1c(OC)cc(O)c2c1C(=O)c1[nH]c(C(=O)O)c(O)c(=O)c1C2=O`: the TGI was 63.8 µM with 786-0 renal; > 100 µM in the assay with CCRF-CEM leukemia; > 100 µM with HCT-116 colon; > 100 µM with HT29 colon; > 100 µM in the assay with LOX IMVI melanoma; > 100 µM in the assay with NCI-H460 lung. In addition, the TGI is > 100 µM with RPMI-8226 leukemia, > 100 µM in the assay on SF-268 CNS and 4.3 µM in the assay on SK-MEL-2 melanoma.
In the case of `COc1ccc(C(=O)c2cc(OC)c(C)c(OC)c2)cc1OC(=O)CCl`, the GI50 in the assay with 786-0 renal was 3.65 µM; in the assay with CCRF-CEM leukemia it was 0.331 µM; with HCT-116 colon it was 0.392 µM; in the assay with HT29 colon it was 4.21 µM; with LOX IMVI melanoma, 0.244 µM; in the assay on MALME-3M melanoma, 0.572 µM. The GI50 is 0.37 µM with NCI-H460 lung, 0.337 µM in the assay with RPMI-8226 leukemia, 1.33 µM in the assay with SF-268 CNS and 0.671 µM in the assay on SK-MEL-2 melanoma. In addition, the TGI in the assay on 786-0 renal was > 79.5 µM; with CCRF-CEM leukemia, > 100 µM; in the assay with HCT-116 colon it was > 38.3 µM; in the assay with HT29 colon, 27.6 µM; in the assay on LOX IMVI melanoma it was 19.6 µM; with MALME-3M melanoma, 48.1 µM. Besides, the TGI in the assay with NCI-H460 lung is 12.7 µM; in the assay on RPMI-8226 leukemia, 14.1 µM; in the assay with SF-268 CNS, > 100 µM; with SK-MEL-2 melanoma, 66.1 µM.
Consider `COc1cc(C(=O)c2cc(C)c3[nH]c4ccc(Cl)cc4c3c2C)cc(OC)c1OC`, for which the GI50 is 0.0634 µM with 786-0 renal; 0.0399 µM in the assay on CCRF-CEM leukemia; 0.0376 µM with HCT-116 colon; 0.359 µM in the assay on HT29 colon; 0.0384 µM with LOX IMVI melanoma; 0.0791 µM with MALME-3M melanoma. Also, the GI50 was 0.035 µM in the assay on NCI-H460 lung, 0.0421 µM in the assay on RPMI-8226 leukemia, 0.182 µM in the assay with SF-268 CNS and 0.575 µM in the assay on SK-MEL-2 melanoma. For the same molecule, the TGI was 6.19 µM in the assay with 786-0 renal; > 100 µM in the assay with CCRF-CEM leukemia; 3.19 µM with HCT-116 colon; 10.7 µM in the assay with HT29 colon; 5.52 µM with LOX IMVI melanoma; 15.3 µM with MALME-3M melanoma. In addition, the TGI in the assay with NCI-H460 lung worked out at 3.74 µM; in the assay on RPMI-8226 leukemia, 18.6 µM; in the assay on SF-268 CNS it was 16.2 µM; with SK-MEL-2 melanoma, 17.3 µM.
In the case of `CC(=O)O.CC(=O)O.CC(=O)O.CC(=O)O.CC(=O)O.CC(=O)O.O.[Ti].[Ti]`, the GI50 with 786-0 renal, in the assay on CCRF-CEM leukemia, with HCT-116 colon, with HT29 colon, with LOX IMVI melanoma and in the assay on MALME-3M melanoma was > 100 µM throughout. In addition, the GI50 with RPMI-8226 leukemia, with SF-268 CNS and in the assay on SK-MEL-2 melanoma was > 100 µM throughout. Besides, the TGI in the assay with 786-0 renal, with CCRF-CEM leukemia, with HCT-116 colon, with HT29 colon, with LOX IMVI melanoma and in the assay on MALME-3M melanoma was > 100 µM each time. Further, the TGI in the assay on RPMI-8226 leukemia, in the assay on SF-268 CNS and in the assay on SK-MEL-2 melanoma was > 100 µM each time.
Consider `O=[n+]1c2c(n([O-])c3ccccc31)CCCCCCCCCC2`, for which the TGI with 786-0 renal, in the assay with CCRF-CEM leukemia, in the assay on HCT-116 colon, in the assay with HT29 colon, in the assay on LOX IMVI melanoma and with MALME-3M melanoma was > 100 µM throughout. For the same molecule, the TGI in the assay on RPMI-8226 leukemia, in the assay with SF-268 CNS and in the assay with SK-MEL-2 melanoma was > 100 µM in each case.
`O=C(O)CNc1cc(-c2ccccc2)nc(NCC(=O)O)n1`: the TGI in the assay on 786-0 renal, with CCRF-CEM leukemia, with HCT-116 colon, with HT29 colon, in the assay with LOX IMVI melanoma and in the assay on MALME-3M melanoma was > 100 µM each time. Besides, the TGI with NCI-H460 lung, with RPMI-8226 leukemia and in the assay on SK-MEL-2 melanoma was > 100 µM each time.
For `COC(=O)c1cc2c3ccccc3n(C(C)=O)c2cn1`, the TGI in the assay with 786-0 renal, in the assay with CCRF-CEM leukemia, in the assay on HCT-116 colon, with HT29 colon, with LOX IMVI melanoma and in the assay on MALME-3M melanoma was > 100 µM each time. Also, the TGI in the assay with NCI-H460 lung, with RPMI-8226 leukemia and in the assay on SK-MEL-2 melanoma was > 100 µM throughout.
